Results: ChEMBL document CHEMBL1201862, “PubChem BioAssay data set” (2004)
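1) Cells in 96-well plates. 2) Compound, 48 h, 5 concentrations. 3) Linear interpolation between surrounding doses. 4) Unreached endpoint = highest concentration. Here, GI50 denotes the concentration required for 50% inhibition of growth.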 Active and inactive are the calls of the source. Cut-off read from the data, not from the text of the source: active = GI50 up to about 1.1 µM and inactive = higher.

What was measured:
Experiment in all cases: DTP human tumour cell line panel, 48 h
COLO 205 = test system: COLO 205
SW-620 = test system: SW-620
EKVX = test system: EKVX
HCC 2998 = test system: HCC 2998
UACC-62 = test system: UACC-62
HCT-15 = test system: HCT-15
MCF7 = test system: MCF7
IGROV-1 = test system: IGROV-1
HL-60 = test system: HL-60
CAKI-1 = test system: CAKI-1
K562 = test system: K562
SF-295 = test system: SF-295
MDA-N = test system: MDA-N
A549 = test system: A549
NCI-H23 = test system: NCI-H23
A498 = test system: A498
ACHN = test system: ACHN
SK-MEL-2 = test system: SK-MEL-2
SF-539 = test system: SF-539
MDA-MB-231 = test system: MDA-MB-231
TK-10 = test system: TK-10
MDA-MB-435 = test system: MDA-MB-435
HOP-62 = test system: HOP-62
HCT-116 = test system: HCT-116
OVCAR-5 = test system: OVCAR-5
OVCAR-8 = test system: OVCAR-8
CCRF-CEM = test system: CCRF-CEM
NCI-H522 = test system: NCI-H522
KM12 = test system: KM12
UO-31 = test system: UO-31
LOX IMVI = test system: LOX IMVI
M14 = test system: M14
SK-MEL-5 = test system: SK-MEL-5
SNB-19 = test system: SNB-19
PC-3 = test system: PC-3
Hs-578T = test system: Hs-578T
OVCAR-3 = test system: OVCAR-3
DU-145 = test system: DU-145
U-251 = test system: U-251
RXF 393 = test system: RXF 393
MOLT-4 = test system: MOLT-4
SF-268 = test system: SF-268
NCI-H226 = test system: NCI-H226
786-0 = test system: 786-0
SK-MEL-28 = test system: SK-MEL-28
UACC-257 = test system: UACC-257
NCI/ADR-RES = test system: NCI/ADR-RES
OVCAR-4 = test system: OVCAR-4
RPMI-8226 = test system: RPMI-8226
SR = test system: SR
SK-OV-3 = test system: SK-OV-3
HT-29 = test system: HT-29
SN12C = test system: SN12C
BT-549 = test system: BT-549
NCI-H460 = test system: NCI-H460
Malme-3M = test system: Malme-3M

CCOC1NC(/N=C/c2ccc(OC)cc2)=C(C#N)C1C#N (stereo unspecified)
GI50 (COLO 205): 75.3 µM (inactive)
GI50 (SW-620): 50.9 µM (inactive)
GI50 (EKVX): 92 µM (inactive)
GI50 (HCC 2998): > 100 µM (inactive)
GI50 (UACC-62): 32.9 µM (inactive)
GI50 (HCT-15): 99.3 µM
GI50 (MCF7): > 100 µM (inactive)
GI50 (IGROV-1): > 100 µM (inactive)
GI50 (HL-60): 37.5 µM (inactive)
GI50 (CAKI-1): > 100 µM (inactive)
GI50 (K562): 31 µM (inactive)
GI50 (SF-295): > 100 µM (inactive)
GI50 (MDA-N): 49.2 µM (inactive)
GI50 (A549): > 100 µM (inactive)
GI50 (NCI-H23): 46 µM (inactive)
GI50 (A498): > 100 µM (inactive)
GI50 (ACHN): > 100 µM (inactive)
GI50 (SK-MEL-2): 29.9 µM (inactive)
GI50 (SF-539): 93.8 µM (inactive)
GI50 (MDA-MB-231): 64.6 µM (inactive)
GI50 (TK-10): > 100 µM (inactive)
GI50 (MDA-MB-435): 40.6 µM (inactive)
GI50 (HOP-62): > 100 µM (inactive)
GI50 (HCT-116): 63.1 µM (inactive)
GI50 (OVCAR-5): 87.5 µM (inactive)
GI50 (OVCAR-8): > 100 µM (inactive)
GI50 (CCRF-CEM): 26.7 µM (inactive)
GI50 (NCI-H522): 19.3 µM (inactive)
GI50 (KM12): 64.6 µM (inactive)
GI50 (UO-31): > 100 µM (inactive)
GI50 (LOX IMVI): 44.6 µM (inactive)
GI50 (M14): > 100 µM (inactive)
GI50 (SK-MEL-5): 38.6 µM (inactive)
GI50 (SNB-19): 87.3 µM (inactive)
GI50 (PC-3): 46 µM (inactive)
GI50 (Hs-578T): 47.5 µM (inactive)
GI50 (OVCAR-3): > 100 µM (inactive)
GI50 (DU-145): > 100 µM (inactive)
GI50 (U-251): > 100 µM (inactive)
GI50 (RXF 393): 34.5 µM (inactive)
GI50 (MOLT-4): 92 µM (inactive)
GI50 (SF-268): 97.5 µM (inactive)
GI50 (NCI-H226): > 100 µM (inactive)
GI50 (786-0): > 100 µM (inactive)
GI50 (SK-MEL-28): > 100 µM (inactive)
GI50 (UACC-257): 65.5 µM (inactive)
GI50 (NCI/ADR-RES): > 100 µM (inactive)
GI50 (OVCAR-4): 18.4 µM (inactive)
GI50 (RPMI-8226): 46.7 µM (inactive)
GI50 (SR): 30 µM (inactive)
GI50 (SK-OV-3): 80.4 µM (inactive)
GI50 (HT-29): > 100 µM (inactive)
GI50 (SN12C): > 100 µM (inactive)
GI50 (BT-549): 19.9 µM (inactive)
GI50 (NCI-H460): > 100 µM (inactive)
GI50 (Malme-3M): 90.8 µM (inactive)
